In PubChem BioAssay AID2060896 (Molecular Pharmacology Branch, DTP, NCI, 2025):
Values belong to the molecule of their own block, whether it stands above or below them.

Tested on: 941728-121-R-J1-PDC complex spheroid viability
Experiment: Anticancer human tumor 941728-121-R-J1-PDC patient-derived lung adenocarcinoma cell line growth inhibition [RAS]
Conditions: for IC50: curve of first compound; for viability, T/C: stronger effect = lower value
Outline: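 Tumour cells grown as complex spheroids with HUVEC endothelial cells and mesenchymal stem cells, treated with RAS pathway inhibitor combinations. Each agent spans half-log steps from near clinical Cmax, or 10 microM where Cmax is unknown.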

[1] = second compound 0.0316 µM, first compound 0.00316 µM
[2] = second compound 0.0316 µM, first compound 0.01 µM
[3] = second compound 0.0316 µM, first compound 0.0316 µM
[4] = second compound 0.0316 µM, first compound 0.1 µM
[5] = second compound 0.0316 µM, first compound 0.316 µM
[6] = second compound 0.0316 µM, first compound 1 µM
[7] = second compound 0.1 µM, first compound 0.00316 µM
[8] = second compound 0.1 µM, first compound 0.01 µM
[9] = second compound 0.1 µM, first compound 0.0316 µM
[10] = second compound 0.1 µM, first compound 0.1 µM
[11] = second compound 0.1 µM, first compound 0.316 µM
[12] = second compound 0.1 µM, first compound 1 µM
[13] = second compound 0.316 µM, first compound 0.00316 µM
[14] = second compound 0.316 µM, first compound 0.01 µM
[15] = second compound 0.316 µM, first compound 0.0316 µM
[16] = second compound 0.316 µM, first compound 0.1 µM
[17] = second compound 0.316 µM, first compound 0.316 µM
[18] = second compound 0.316 µM, first compound 1 µM
[19] = second compound 1 µM, first compound 0.00316 µM
[20] = second compound 1 µM, first compound 0.01 µM
[21] = second compound 1 µM, first compound 0.0316 µM
[22] = second compound 1 µM, first compound 0.1 µM
[23] = second compound 1 µM, first compound 0.316 µM
[24] = second compound 1 µM, first compound 1 µM
[25] = second compound 0.0316 µM, first compound 0.000949 µM
[26] = second compound 0.0316 µM, first compound 0.003 µM
[27] = second compound 0.0316 µM, first compound 0.00949 µM
[28] = second compound 0.0316 µM, first compound 0.03 µM
[29] = second compound 0.0316 µM, first compound 0.0949 µM
[30] = second compound 0.0316 µM, first compound 0.3 µM
[31] = second compound 0.1 µM, first compound 0.000949 µM
[32] = second compound 0.1 µM, first compound 0.003 µM
[33] = second compound 0.1 µM, first compound 0.00949 µM
[34] = second compound 0.1 µM, first compound 0.03 µM
[35] = second compound 0.1 µM, first compound 0.0949 µM
[36] = second compound 0.1 µM, first compound 0.3 µM
[37] = second compound 0.316 µM, first compound 0.000949 µM
[38] = second compound 0.316 µM, first compound 0.003 µM
[39] = second compound 0.316 µM, first compound 0.00949 µM
[40] = second compound 0.316 µM, first compound 0.03 µM
[41] = second compound 0.316 µM, first compound 0.0949 µM
[42] = second compound 0.316 µM, first compound 0.3 µM
[43] = second compound 1 µM, first compound 0.000949 µM
[44] = second compound 1 µM, first compound 0.003 µM
[45] = second compound 1 µM, first compound 0.00949 µM
[46] = second compound 1 µM, first compound 0.03 µM
[47] = second compound 1 µM, first compound 0.0949 µM
[48] = second compound 1 µM, first compound 0.3 µM
[49] = second compound 3.16 µM, first compound 0.000949 µM
[50] = second compound 3.16 µM, first compound 0.003 µM
[51] = second compound 3.16 µM, first compound 0.00949 µM
[52] = second compound 3.16 µM, first compound 0.03 µM
[53] = second compound 3.16 µM, first compound 0.0949 µM
[54] = second compound 3.16 µM, first compound 0.3 µM
[55] = second compound 10 µM, first compound 0.000949 µM
[56] = second compound 10 µM, first compound 0.003 µM
[57] = second compound 10 µM, first compound 0.00949 µM
[58] = second compound 10 µM, first compound 0.03 µM
[59] = second compound 10 µM, first compound 0.0949 µM
[60] = second compound 10 µM, first compound 0.3 µM
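Also: spheroids exposed to compounds for 7 days before readout.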
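For viability, T/C in this document: 100% = DMSO vehicle control viability.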

- IC50 (second compound 0.0316 µM): < 3.16 nM
- IC50 (second compound 0.1 µM): < 3.16 nM
- IC50 (second compound 0.316 µM): < 3.16 nM
- IC50 (second compound 1 µM): < 3.16 nM
- IC50 (second compound 3.16 µM): < 3.16 nM
- IC50 (second compound 10 µM): < 3.16 nM
Compound: C=CC(=O)N1CCN(c2nc(OCC3CCCN3C)nc3c(F)c(-c4nc(N)cc(C)c4C(F)(F)F)c(Cl)cc23)C(C)C1 (stereo not drawn) + C#Cc1c(F)ccc2cc(O)cc(-c3ncc4c(N5CC6CCC(C5)N6)nc(OCC56CCCN5CC(F)C6)nc4c3F)c12
- viability, T/C [1]: 22.3%
- viability, T/C [2]: 20.1%
- viability, T/C [3]: 18.7%
- viability, T/C [4]: 21%
- viability, T/C [5]: 22.6%
- viability, T/C [6]: 21.2%
- viability, T/C [7]: 22.9%
- viability, T/C [8]: 19.5%
- viability, T/C [9]: 21.8%
- viability, T/C [10]: 20.7%
- viability, T/C [11]: 19.8%
- viability, T/C [12]: 23.9%
- viability, T/C [13]: 22.1%
- viability, T/C [14]: 22.2%
- viability, T/C [15]: 21%
- viability, T/C [16]: 23.4%
- viability, T/C [17]: 20.7%
- viability, T/C [18]: 21.4%
- viability, T/C [19]: 21.3%
- viability, T/C [20]: 19.5%
- viability, T/C [21]: 22%
- viability, T/C [22]: 21.5%
- viability, T/C [23]: 22.2%
- viability, T/C [24]: 22.5%
- viability, T/C (second compound 3.16 µM, first compound 0.00316 µM): 22.8%
- viability, T/C (second compound 3.16 µM, first compound 0.01 µM): 20.1%
- viability, T/C (second compound 3.16 µM, first compound 0.0316 µM): 22%
- viability, T/C (second compound 3.16 µM, first compound 0.1 µM): 20.3%
- viability, T/C (second compound 3.16 µM, first compound 0.316 µM): 22%
- viability, T/C (second compound 3.16 µM, first compound 1 µM): 22.3%
- viability, T/C (second compound 10 µM, first compound 0.00316 µM): 21.9%
- viability, T/C (second compound 10 µM, first compound 0.01 µM): 21.1%
- viability, T/C (second compound 10 µM, first compound 0.0316 µM): 17.5%
- viability, T/C (second compound 10 µM, first compound 0.1 µM): 17.8%
- viability, T/C (second compound 10 µM, first compound 0.316 µM): 18.2%
- viability, T/C (second compound 10 µM, first compound 1 µM): 14.7%

- IC50 (second compound 0.0316 µM): > 300 nM
- IC50 (second compound 0.1 µM): > 300 nM
- IC50 (second compound 0.316 µM): < 0.949 nM
- IC50 (second compound 1 µM): < 0.949 nM
- IC50 (second compound 3.16 µM): < 0.949 nM
- IC50 (second compound 10 µM): < 0.949 nM
Compound: CC1(C)CCC(Nc2ncc(C(F)(F)F)c(-c3c[nH]c4c(P(C)(C)=O)c(C#N)ccc34)n2)CN1 (stereo not drawn) + C#Cc1c(F)ccc2cc(O)cc(-c3ncc4c(N5CC6CCC(C5)N6)nc(OCC56CCCN5CC(F)C6)nc4c3F)c12
- viability, T/C [25]: 71.4%
- viability, T/C [26]: 58.2%
- viability, T/C [27]: 53.7%
- viability, T/C [28]: 48%
- viability, T/C [29]: 49.9%
- viability, T/C [30]: 54.6%
- viability, T/C [31]: 68.5%
- viability, T/C [32]: 53.6%
- viability, T/C [33]: 55.5%
- viability, T/C [34]: 52.7%
- viability, T/C [35]: 50.5%
- viability, T/C [36]: 49.4%
- viability, T/C [37]: 51.5%
- viability, T/C [38]: 46.7%
- viability, T/C [39]: 38.5%
- viability, T/C [40]: 45.4%
- viability, T/C [41]: 44.4%
- viability, T/C [42]: 49.6%
- viability, T/C [43]: 33.8%
- viability, T/C [44]: 40.2%
- viability, T/C [45]: 35.6%
- viability, T/C [46]: 36.3%
- viability, T/C [47]: 38.6%
- viability, T/C [48]: 38.9%
- viability, T/C [49]: 30.9%
- viability, T/C [50]: 30.8%
- viability, T/C [51]: 33.6%
- viability, T/C [52]: 35.1%
- viability, T/C [53]: 34.4%
- viability, T/C [54]: 34.5%
- viability, T/C [55]: 23%
- viability, T/C [56]: 30.1%
- viability, T/C [57]: 24.3%
- viability, T/C [58]: 24.9%
- viability, T/C [59]: 27.5%
- viability, T/C [60]: 26%

- IC50 (second compound 0.0316 µM): 26.2 nM
- IC50 (second compound 0.1 µM): 12.2 nM
- IC50 (second compound 0.316 µM): < 0.949 nM
- IC50 (second compound 1 µM): < 0.949 nM
- IC50 (second compound 3.16 µM): < 0.949 nM
- IC50 (second compound 10 µM): < 0.949 nM
Compound: CCc1c2c(nc3ccc(O)cc13)-c1cc3c(c(=O)n1C2)COC(=O)[C@]3(O)CC + C#Cc1c(F)ccc2cc(O)cc(-c3ncc4c(N5CC6CCC(C5)N6)nc(OCC56CCCN5CC(F)C6)nc4c3F)c12
- viability, T/C [25]: 77.8%
- viability, T/C [26]: 61.1%
- viability, T/C [27]: 54.1%
- viability, T/C [28]: 49.8%
- viability, T/C [29]: 51.6%
- viability, T/C [30]: 40.5%
- viability, T/C [31]: 69.4%
- viability, T/C [32]: 58.8%
- viability, T/C [33]: 45%
- viability, T/C [34]: 53.6%
- viability, T/C [35]: 48.4%
- viability, T/C [36]: 39.9%
- viability, T/C [37]: 52.9%
- viability, T/C [38]: 42.4%
- viability, T/C [39]: 42.5%
- viability, T/C [40]: 42.6%
- viability, T/C [41]: 44.7%
- viability, T/C [42]: 34.6%
- viability, T/C [43]: 34.8%
- viability, T/C [44]: 37.9%
- viability, T/C [45]: 30.6%
- viability, T/C [46]: 31.8%
- viability, T/C [47]: 32.4%
- viability, T/C [48]: 29%
- viability, T/C [49]: 25.6%
- viability, T/C [50]: 26.1%
- viability, T/C [51]: 26.7%
- viability, T/C [52]: 23.5%
- viability, T/C [53]: 21.4%
- viability, T/C [54]: 19%
- viability, T/C [55]: 21.9%
- viability, T/C [56]: 18.5%
- viability, T/C [57]: 18.6%
- viability, T/C [58]: 14.8%
- viability, T/C [59]: 13.3%
- viability, T/C [60]: 8.73%

- IC50 (second compound 0.00316 µM): < 3.16 nM
- IC50 (second compound 0.01 µM): < 3.16 nM
- IC50 (second compound 0.0316 µM): < 3.16 nM
- IC50 (second compound 0.1 µM): < 3.16 nM
- IC50 (second compound 0.316 µM): < 3.16 nM
- IC50 (second compound 1 µM): < 3.16 nM
Compound: C=CC(=O)Nc1cc(Nc2nccc(-c3cn(C)c4ccccc34)n2)c(OC)cc1N(C)CCN(C)C + C=CC(=O)N1CCN(c2nc(OCC3CCCN3C)nc3c(F)c(-c4nc(N)cc(C)c4C(F)(F)F)c(Cl)cc23)C(C)C1
- viability, T/C (second compound 0.00316 µM, first compound 0.00316 µM): 17.3%
- viability, T/C (second compound 0.00316 µM, first compound 0.01 µM): 25.6%
- viability, T/C (second compound 0.00316 µM, first compound 0.0316 µM): 17.1%
- viability, T/C (second compound 0.00316 µM, first compound 0.1 µM): 21.1%
- viability, T/C (second compound 0.00316 µM, first compound 0.316 µM): 17.6%
- viability, T/C (second compound 0.00316 µM, first compound 1 µM): 16.7%
- viability, T/C (second compound 0.01 µM, first compound 0.00316 µM): 20.4%
- viability, T/C (second compound 0.01 µM, first compound 0.01 µM): 18.3%
- viability, T/C (second compound 0.01 µM, first compound 0.0316 µM): 19.5%
- viability, T/C (second compound 0.01 µM, first compound 0.1 µM): 18.2%
- viability, T/C (second compound 0.01 µM, first compound 0.316 µM): 14.4%
- viability, T/C (second compound 0.01 µM, first compound 1 µM): 17.3%
- viability, T/C [1]: 18.4%
- viability, T/C [2]: 16.9%
- viability, T/C [3]: 17.2%
- viability, T/C [4]: 17.9%
- viability, T/C [5]: 17.5%
- viability, T/C [6]: 15.8%
- viability, T/C [7]: 21.1%
- viability, T/C [8]: 19.7%
- viability, T/C [9]: 15.5%
- viability, T/C [10]: 15.8%
- viability, T/C [11]: 18.7%
- viability, T/C [12]: 16.4%
- viability, T/C [13]: 19.8%
- viability, T/C [14]: 18.1%
- viability, T/C [15]: 15.7%
- viability, T/C [16]: 17.1%
- viability, T/C [17]: 19.7%
- viability, T/C [18]: 15.6%
- viability, T/C [19]: 20.6%
- viability, T/C [20]: 15.7%
- viability, T/C [21]: 18.2%
- viability, T/C [22]: 17.3%
- viability, T/C [23]: 18.9%
- viability, T/C [24]: 16.2%
